The subject of assay [1] is A549. Description: Selectivity index, ratio of IC50 for HUVEC to IC50 for human A549 cells.
In assay [2] the test system is CCRF-CEM. Description: Selectivity index, ratio of IC50 for HUVEC to IC50 for human CCRF-CEM cells.
For assay [3], the system named is HeLa. In words: Selectivity index, ratio of IC50 for HUVEC to IC50 for human HeLa cells.
Assay [4] is described as follows: Selectivity index, ratio of IC50 for HUVEC to IC50 for human MDA-MB-231 cells.
Assay [5] has as its system MCF7. In words: Selectivity index, ratio of IC50 for HUVEC to IC50 for human MCF7 cells.
For the next assay, the system named is HUVEC. In words: Cytotoxicity against HUVEC assessed as cell viability after 48 hrs by MTT assay. It counts as cell-based. The settings on record: Homo sapiens. For orientation: Formazan colour is commonly taken as a measure of viable cells.
For assay [6], the system named is A549. In words: Antiproliferative activity against human A549 cells assessed as cell viability after 72 hrs by MTT assay. It counts as functional, cell-based. Conditions: A549, 72 h.
In assay [7] the test system is HeLa. Description: Antiproliferative activity against human HeLa cells assessed as cell viability after 72 hrs by MTT assay. It counts as functional, cell-based.
Assay [8] relates to CCRF-CEM. Description: Antiproliferative activity against human CCRF-CEM cells assessed as cell viability after 72 hrs by MTT assay. It counts as functional, cell-based.
Assay [9] deals with MDA-MB-231. Description: Antiproliferative activity against human MDA-MB-231 cells assessed as cell viability after 72 hrs by MTT assay. It counts as functional, cell-based. Conditions: MDA-MB-231, 72 h.
Assay [10] relates to Jurkat. Description: Antiproliferative activity against human Jurkat cells assessed as cell viability after 72 hrs by MTT assay. It counts as functional, cell-based.
For assay [11], the system named is MCF7. In words: Antiproliferative activity against human MCF7 cells assessed as cell viability after 72 hrs by MTT assay. It counts as functional, cell-based. Conditions: MCF7, 72 h.
In assay [12] the test system is Jurkat. In words: Selectivity index, ratio of IC50 for HUVEC to IC50 for human Jurkat cells.
In assay [13] the test system is MDA-MB-231. Description: Potency index, ratio of etoposide IC50 to compound IC50 for human MDA-MB-231 cells. It counts as functional.

As usually defined, the IC50 is the concentration that gives 50% inhibition. `c1ccc(NC2=NCc3c([nH]c4ccccc34)S2)cc1`: the “Ratio IC50” value with A549 [1] is above 2.9; in the assay on CCRF-CEM [2] it was above 11; in the assay on HeLa [3], above 3.7; in assay [4], above 8; in the assay with MCF7 [5], 3; in the assay on Jurkat [12], above 10. Also, the IC50 is above 100 µM in the assay with HUVEC; 34.1 µM with A549 [6]; 27 µM in the assay on HeLa [7]; 9 µM in the assay with CCRF-CEM [8]; 12.2 µM with MDA-MB-231 [9]; 9.5 µM with Jurkat [10]. Further, the IC50 in the assay on MCF7 [11] was 31.6 µM.

With `Brc1ccc(NC2=NCc3c([nH]c4ccccc34)S2)cc1`, the “Ratio IC50” value is on record as 2 with A549 [1]; above 6.5 in the assay with CCRF-CEM [2]; 2.2 in the assay with HeLa [3]; 7.5 in [4]; 2.2 in the assay with MCF7 [5]; 2 with MDA-MB-231 [13]. In the assay with Jurkat [12], the “Ratio IC50” value is listed as 7.8. Besides, the half-maximal inhibitory concentration (IC50) is 64.8 µM with HUVEC; 32 µM in the assay on A549 [6]; 30 µM with HeLa [7]; below 10 µM in the assay on CCRF-CEM [8]; 8.6 µM with MDA-MB-231 [9]; 8.3 µM in the assay on Jurkat [10]. The IC50 in the assay on MCF7 [11] is 29.8 µM.

Regarding `Fc1ccc(NC2=NCc3c([nH]c4ccccc34)S2)cc1`, the “Ratio IC50” value in the assay with A549 [1] was 1.4; with CCRF-CEM [2], 24.7; in the assay with HeLa [3] it was 1.9; in [4] it was 4.7; in the assay on MCF7 [5], 1.2; in the assay with MDA-MB-231 [13], 2. Besides, the “Ratio IC50” value in the assay on Jurkat [12] is given as 5.3. The IC50 in the assay on HUVEC amounted to 42 µM; with A549 [6] it was 29 µM; in the assay on HeLa [7], 21.7 µM; in the assay on CCRF-CEM [8], 1.7 µM; in the assay with MDA-MB-231 [9] it was 8.9 µM; with Jurkat [10] it was 8 µM. Besides, in the assay with MCF7 [11], the IC50 came out at 33.8 µM.

`Clc1ccc(NC2=NCc3c([nH]c4ccccc34)S2)cc1`: the “Ratio IC50” value with A549 [1] is reported as 1.1; in the assay on CCRF-CEM [2], 0.3; with HeLa [3], 0.3; in assay [4] it was 1.2; in the assay with MCF7 [5] it was 0.3; in the assay on MDA-MB-231 [13] it was 2. Further, the “Ratio IC50” value in the assay on Jurkat [12] was determined as 0.8. Also, the IC50 stood at 8.5 µM in the assay on HUVEC; 7.4 µM in the assay on A549 [6]; 32.4 µM in the assay on HeLa [7]; 29.8 µM with CCRF-CEM [8]; 7.2 µM in the assay with MDA-MB-231 [9]; 9.8 µM with Jurkat [10]. Besides, the IC50 with MCF7 [11] came to 30 µM.

Regarding `COc1ccc(NC2=NCc3c([nH]c4ccccc34)S2)cc1`, the “Ratio IC50” value was 1.7 in the assay with A549 [1]; above 5.1 in the assay on CCRF-CEM [2]; 3.7 in the assay with HeLa [3]; 7 in assay [4]; 1.8 in the assay on MCF7 [5]; 2 in the assay on MDA-MB-231 [13]. The “Ratio IC50” value in the assay on Jurkat [12] stood at 6.2. Further, the IC50 with HUVEC was 51 µM; with A549 [6], 30.1 µM; in the assay on HeLa [7], 13.9 µM; with CCRF-CEM [8] it was below 10 µM; in the assay with MDA-MB-231 [9], 7.3 µM; with Jurkat [10] it was 8.2 µM. Also, in the assay on MCF7 [11], the IC50 was 28.7 µM.

Take `Cc1ccc(NC2=NCc3c([nH]c4ccccc34)S2)cc1`: the “Ratio IC50” value in the assay on A549 [1] is listed as above 3.2; with CCRF-CEM [2], above 20; in the assay with HeLa [3], above 3.6; in [4], above 12.6; in the assay with MCF7 [5] it was 3.1; in the assay on MDA-MB-231 [13], 2. In addition, the “Ratio IC50” value in the assay with Jurkat [12] was above 12.5. For the same compound, the IC50 in the assay on HUVEC is above 100 µM; in the assay with A549 [6], 31.2 µM; in the assay with HeLa [7] it was 27.5 µM; with CCRF-CEM [8], 5 µM; with MDA-MB-231 [9], 7.9 µM; in the assay with Jurkat [10], 8 µM. In addition, the IC50 in the assay with MCF7 [11] was 32.1 µM.

For `O=[N+]([O-])c1ccc(NC2=NCc3c([nH]c4ccccc34)S2)cc1`, the “Ratio IC50” value was 1.8 with A549 [1]; 11.6 with CCRF-CEM [2]; 6.2 in the assay with HeLa [3]; 10.7 in assay [4]; 7.5 in the assay with MCF7 [5]; 2 with MDA-MB-231 [13]. Also, in the assay with Jurkat [12], the “Ratio IC50” value came out at 7.8. Also, the IC50 with HUVEC amounted to 58 µM; in the assay on A549 [6], 32 µM; with HeLa [7], 9.3 µM; in the assay on CCRF-CEM [8], 5 µM; with MDA-MB-231 [9], 5.4 µM; in the assay on Jurkat [10] it was 7.4 µM. Further, the IC50 with MCF7 [11] stood at 7.7 µM.

Regarding `FC(F)(F)c1ccc(NC2=NCc3c([nH]c4ccccc34)S2)cc1`, the “Ratio IC50” value with A549 [1] was determined as 1.7; with CCRF-CEM [2], 6.9; in the assay on HeLa [3], 0.9; in assay [4] it was 1.9; in the assay on MCF7 [5], 1.9; in the assay on Jurkat [12] it was 6.9. Moreover, the IC50 in the assay with HUVEC was found to be 68.5 µM; with A549 [6], 40.8 µM; with HeLa [7], 72.4 µM; in the assay on CCRF-CEM [8], 10 µM; in the assay with MDA-MB-231 [9] it was 36.2 µM; with Jurkat [10], 10 µM. Also, the IC50 in the assay on MCF7 [11] is 35.7 µM.

As for `CSC1=NCc2c([nH]c3ccccc23)S1` [CYCLOBRASSININ], the “Ratio IC50” value turned out to be 0.8 with A549 [1]; 2.2 in the assay with CCRF-CEM [2]; 1 with HeLa [3]; 1.2 in [4]; 0.8 with MCF7 [5]; 1.9 in the assay on Jurkat [12]. In addition, the IC50 in the assay with HUVEC came to 57.9 µM; in the assay with A549 [6], 70.3 µM; in the assay with HeLa [7] it was 57.2 µM; in the assay with CCRF-CEM [8], 26.2 µM; in the assay with MDA-MB-231 [9], 48.3 µM; with Jurkat [10] it was 29.5 µM. Further, the half-inhibitory concentration (IC50) in the assay on MCF7 [11] was 72 µM.

For the origin of these results see ChEMBL document CHEMBL2440045, “The synthesis and anticancer activity of analogs of the indole phytoalexins brassinin, 1-methoxyspirobrassinol methyl ether and cyclobrassinin” (Bioorg Med Chem, 2013).
